Laboratory results reported in patent publication US20020010132A1, “COMPOSITIONS OF MURAMYL PEPTIDES INHIBITING THE REPLICATION OF HIV” (VACSYN S.A., priority 1994, published 2002).

How the values were obtained:
macrophages in culture = experiment: Proliferation of cultured macrophages (3H-thymidine incorporation); assay type: cell-based, human; details: for inhibition of proliferation of macrophages stimulated with the combination IL-3/GM-CSF / inhibition of proliferation of macrophages stimulated with IL-3: 1 μg/ml; for inhibition of proliferation of macrophages stimulated with the combination IL-3/GM-CSF: hr IL-3 and hr GM-CSF stimulated; for inhibition of proliferation of macrophages stimulated with IL-3: hr IL-3 stimulated, compound added a day before 3H-thymidine; for inhibition of spontaneous proliferation: without stimulation
Method: For that, monocytes collected from a donor are cultured for 5 days either a) without stimulation (so as to evaluate their spontaneous proliferation level) or b) in the presence of human recombinant interleukin-3 (hr IL-3) or c) in the presence of both hr IL-3 and hr GM-CSF human recombinant granulocyte-macrophage colony stimulating factor. These two treatments make it possible to obtain a high level of proliferation. The compounds of the invention are added to the culture medium a day before the addition of tritiated thymidine (^3H-thymidine). The dividing cells incorporate this thymidine. The cells (which have differentiated into macrophages during the duration of the culture) are recovered and washed, and the proliferation level is evaluated by measuring, in a beta counter, the quantity of ^3H incorporated according to conventional methods as described in Blood, Vol. 76, pages 1490-1493, 1990.

HIV (HTLV III Ba-L) = experiment: HIV replication in primary cultures of human monocytes (viral protein P24 in supernatants, day 7); assay type: cell-based
Method: Some cultures were treated with different concentrations of the compounds either 1 day before, or the same day, or 1 day after inoculation with HIV. The replication of the virus was evaluated on day 7 by measurement of the quantity of viral protein P24 in the supernatants as described in Blood, Vol. 76, page 1490-1493, 1990.

[1] = Clinical trials: tolerance in healthy volunteers and cancer subjects; assay type: in vivo, man
guinea pig macrophages = details: cited from earlier work
HIV [2] = details: in vitro, 1000 μg/ml; cited from earlier work
HIV [3] = details: cited from earlier work

Compound	inhibition of proliferation of macrophages stimulated with the combination IL-3/GM-CSF (macrophages in culture)	inhibition of proliferation of macrophages stimulated with IL-3 (macrophages in culture)	inhibition of spontaneous proliferation (macrophages in culture; 10 μg/ml)	side effects in man [1]	tolerance in man [1]	other results
CCCCOC(=O)[C@@H](CCC(N)=O)NC(=O)[C@H](C)NC(=O)[C@@H](C)O[C@H]1[C@H](O)[C@@H](CO)OC(O)[C@@H]1NC(C)=O (stereo partly drawn) [Murabutide, Nac-Mur-L-Ala-DGln OnC4H9]	inhibiting the proliferation	inhibiting the proliferation	inhibition of spontaneous proliferation was observed	free of side effects	very good tolerance	inhibition of viral replication (HIV (HTLV III Ba-L); 10 to 50 μg/ml, treatment on day -1, day 0 or day +1 relative to infection, P24 on day 7): completely inhibits viral replication
COC(=O)[C@@H](CCC(N)=O)NC(=O)[C@H](C)NC(=O)[C@@H](C)O[C@H]1[C@H](O)[C@@H](CO)OC(O)[C@@H]1NC(C)=O (stereo partly drawn) [Murametide, Nac-Mur-L-Ala-DGln OMe]	inhibiting the proliferation	inhibiting the proliferation	inhibition of spontaneous proliferation was observed	free of side effects	very good tolerance	inhibition of spontaneous proliferation (macrophages in culture; 50 μg/ml): inhibition of spontaneous proliferation was observed; suppression of viral replication (HIV (HTLV III Ba-L); 50 μg/ml, regardless of the time of treatment): 100%; suppression of viral replication (HIV (HTLV III Ba-L); different concentrations, treatment 1 day before, same day or 1 day after inoculation): highly significant suppression of viral replication
N-acetyl-muramyl-L-alanyl-D-Isoglutamine [MDP]	–	–	–	–	–	inhibition of the proliferation of guinea pig macrophages (guinea pig macrophages): capable of inhibiting the proliferation; inhibition of the replication of HIV (HIV [2]): partially inhibiting the replication of HIV
CCCCCCCCCCCCCCCC(=O)OC[C@H](COP(=O)(O)OCCNC(=O)[C@H](C)NC(=O)CC[C@@H](NC(=O)[C@H](C)NC(=O)[C@@H](C)O[C@@H]([C@H](O)[C@H](O)CO)[C@H](C=O)NC(C)=O)C(N)=O)OC(=O)CCCCCCCCCCCCCCC [MTP-PE]	–	–	–	–	–	activity on viral replication (HIV [3]; compound added a day before or 4 days after): minimal; total suppression of viral replication (HIV [3]; free form or incorporated into liposomes): not capable; reduction in viral replication (HIV [3]; free form, added repeatedly before and after HIV infection): only a partial reduction in viral replication
